Data on four compounds can be found in ChEMBL document CHEMBL1121547 (J Med Chem, 1980).

Experiment [1] addresses GABA-A receptor; anion channel (Rattus norvegicus) (UniProt O09028+P15431+P18506+P18508+P19969+P20236+P23574+P23576+P28471+P28473+P30191+P62813+P63079+P63138+Q91ZM7+Q9ES14). Nature of the experiment: Relative binding affinity for sodium-independent Gamma-aminobutyric acid receptor synaptic membrane binding site in rat brain tissue. Type of experiment: tissue-based.
For experiment [2], the target named is GABA-A receptor; anion channel. Nature of the experiment: Displacement of [3H]gamma-aminobutyric acid from sodium-independent Gamma-aminobutyric acid (GABA-A) receptor synaptic membrane binding sites from rat brain tissue.
The target of experiment [3] is Gamma-aminobutyric acid receptor subunit gamma-1 (Rattus norvegicus, UniProt P23574). Nature of the experiment: […] of [3H]GABA at Gamma-aminobutyric acid receptor in rat brain membranes at 0.01 uM. Type of experiment: cell membranes. (Displacement assays read how much labelled ligand stays bound in the presence of the test substance.)
Chain of Gamma-aminobutyric acid receptor subunit gamma-1 (P23574 whole entry): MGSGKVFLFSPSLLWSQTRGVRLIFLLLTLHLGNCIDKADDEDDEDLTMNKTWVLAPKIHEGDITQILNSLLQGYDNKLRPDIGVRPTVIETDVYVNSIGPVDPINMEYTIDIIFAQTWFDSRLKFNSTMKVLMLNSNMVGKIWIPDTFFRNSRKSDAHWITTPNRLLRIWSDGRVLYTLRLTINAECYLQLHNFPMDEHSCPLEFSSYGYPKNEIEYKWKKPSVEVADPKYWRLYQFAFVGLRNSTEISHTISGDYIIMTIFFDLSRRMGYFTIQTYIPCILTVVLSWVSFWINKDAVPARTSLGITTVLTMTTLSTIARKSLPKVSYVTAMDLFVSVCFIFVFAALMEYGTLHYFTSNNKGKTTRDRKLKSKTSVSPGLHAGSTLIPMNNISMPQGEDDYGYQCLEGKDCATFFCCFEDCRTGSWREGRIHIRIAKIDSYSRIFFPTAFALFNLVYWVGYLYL

`NCc1cc(O)no1` came in with a Relative affinity in experiment [1] of 6.3.

Take `NCC1CCC1C(=O)O` (racemic): the IC50 in experiment [2] is 0.00029 M l-1. The same compound returned a Relative affinity in experiment [1] of 6.9.

In turn, `CN1CCc2cc3c(cc2[C@H]1[C@@H]1OC(=O)c2c1ccc1c2OCO1)OCO3` [BICUCULLINE] registered an IC50 in experiment [3] of 3800 nM. In experiment [1], this compound had a Relative affinity of 0.0056.

For `NCc1cc(=O)[nH]o1` [MUSCIMOL], the IC50 in experiment [2] (read-out: IC50) stood at 3.2 nM.
